# Test results: PubChem BioAssay (NCI)
#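 Protocol summary: plate cells (96-well), add compound at 5 concentrations, incubate 48 h, interpolate endpoints linearly. The concentration for 50% growth inhibition is given as GI50. The concentration for full growth arrest is given as TGI.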
# How the values were obtained:
# Assay in all cases: NCI anticancer screen, dose series, 48 h
# EKVX NSCLC = test system: EKVX NSCLC
# HCC-2998 colon = test system: HCC-2998 colon
# HCT-116 colon = test system: HCT-116 colon
# HCT-15 colon = test system: HCT-15 colon
# HOP-62 NSCLC = test system: HOP-62 NSCLC
# IGROV1 ovarian = test system: IGROV1 ovarian
# K-562 leukemia = test system: K-562 leukemia
# NCI-H226 lung = test system: NCI-H226 lung
# NCI-H23 lung = test system: NCI-H23 lung
# OVCAR-8 ovarian = test system: OVCAR-8 ovarian
SMILES,GI50 (EKVX NSCLC) [µM],TGI (EKVX NSCLC) [µM],GI50 (HCC-2998 colon) [µM],TGI (HCC-2998 colon) [µM],GI50 (HCT-116 colon) [µM],TGI (HCT-116 colon) [µM],GI50 (HCT-15 colon) [µM],TGI (HCT-15 colon) [µM],GI50 (HOP-62 NSCLC) [µM],TGI (HOP-62 NSCLC) [µM],GI50 (IGROV1 ovarian) [µM],TGI (IGROV1 ovarian) [µM],GI50 (K-562 leukemia) [µM],TGI (K-562 leukemia) [µM],GI50 (NCI-H226 lung) [µM],TGI (NCI-H226 lung) [µM],GI50 (NCI-H23 lung) [µM],TGI (NCI-H23 lung) [µM],GI50 (OVCAR-8 ovarian) [µM],TGI (OVCAR-8 ovarian) [µM]
CCOC(=O)c1ccc2c(c1)[n+](=O)c(C(=O)c1ccc3ccccc3c1)c(C(F)(F)F)n2[O-],1.56,3.14,1.65,3.03,0.373,1.46,1.49,3.3,1.66,3.08,0.361,1.21,0.312,1.51,1.74,3.57,0.496,1.79,1.28,2.7
CC(C)(C)C(=O)OCOP(=O)(OCOC(=O)C(C)(C)C)C1CCCN(OC(=O)c2ccccc2)C1=O (centres undefined),0.999,50.7,0.99,5.86,0.558,6.46,1.28,39.9,1.9,18.7,0.657,3.08,0.496,> 100,1.34,19.5,1.51,9.74,0.543,6.95
Fc1ccc(CNc2c3ccccc3nc3ccccc23)cc1,2.61,11.4,1.95,4.62,2.12,11.8,1.98,5.31,3.58,16.7,2.3,6.02,2.49,16.2,2,5.44,2.36,8.57,2.64,12.5
C[As](C)Sc1ccnc(S[As](C)C)n1,11.2,35.8,3.02,10.5,2.13,> 34.8,0.928,14.7,19,> 46.3,4.73,> 40.8,1.06,–,31.2,> 100,6.79,> 32,5.51,> 40.1
O=C(Nc1ccc(Cl)c(Cl)c1)C(=O)Nn1c(=S)[nH]c2ccccc2c1=O,–,> 100,–,> 100,–,> 100,–,> 100,–,> 100,–,> 100,–,> 100,–,> 100,–,> 100,–,> 100
CCOCCc1c(O)nc(SC)[nH]c1=O,> 100,> 100,> 100,> 100,> 100,> 100,> 100,> 100,> 100,> 100,> 100,> 100,> 100,> 100,> 100,> 100,> 100,> 100,> 100,> 100
O=C(N/N=C/c1coc2ccc(Cl)cc2c1=O)c1ccncc1,44.6,> 100,30.3,72.3,40.3,> 100,44.4,> 100,39.7,> 100,24.8,> 100,9.49,66.9,38.6,> 100,38.8,> 100,35.6,> 100
CN(C)c1ccc(/C=C(\C#N)c2cc3ccccc3n2C)cc1,0.636,> 100,0.293,> 43.8,0.101,> 100,0.0687,> 100,0.296,> 100,0.143,> 100,0.0407,> 100,1.46,> 100,0.56,> 100,0.405,> 100
O=C(/C=C/c1ccccn1)c1ccccc1O,5.22,21.8,1.7,3.07,1.85,3.75,2.35,6.68,2.4,6.15,1.76,3.36,2.09,> 100,2.18,6.23,2.35,8.76,3.34,12.2
